target: hNAAA (Homo sapiens (Human), UniProt Q02083); assay: Fluorescence-based NAAA inhibition assay with fluorogenic substrate PAMCA;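 also: compound preincubated 15 min at room temperature with hNAAA, then PAMCA added at 5 µM, reacted 120 min at 37 °C, AMC release read by fluorescence (ex 360, em 460 nm)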
Sequence (Q02083 29-125): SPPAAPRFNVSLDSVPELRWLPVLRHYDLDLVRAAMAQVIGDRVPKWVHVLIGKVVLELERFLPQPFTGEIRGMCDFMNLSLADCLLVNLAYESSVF
Sequence (Q02083 126-359): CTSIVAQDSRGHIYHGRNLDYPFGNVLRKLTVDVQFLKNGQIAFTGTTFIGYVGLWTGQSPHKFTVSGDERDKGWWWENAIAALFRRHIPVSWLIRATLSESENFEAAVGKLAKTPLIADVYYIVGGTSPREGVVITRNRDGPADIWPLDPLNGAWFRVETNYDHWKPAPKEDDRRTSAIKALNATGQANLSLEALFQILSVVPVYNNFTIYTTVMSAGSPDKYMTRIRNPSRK

| SMILES | IC50 [nM] |
| --- | --- |
| N#CN1CC(OCc2ccc(-c3cccnc3)cc2)C1 [Example 72, 3-((4-(Pyridin-3-yl)benzyl)oxy)azetidine-1-carbonitrile] | 10 to 100 |
| COc1ccc(-c2ccc(COC3CN(C#N)C3)cc2)cn1 [Example 73, 3-((4-(6-Methoxypyridin-3-yl)benzyl)oxy)azetidine-1-carbonitrile] | 10 to 100 |
| COc1ncccc1-c1ccc(COC2CN(C#N)C2)cc1 [Example 74, 3-((4-(2-Methoxypyridin-3-yl)benzyl)oxy)azetidine-1-carbonitrile] | 10 to 100 |
| COc1ccccc1-c1ccc(COC2CN(C#N)C2)cc1 [Example 75, 3-((2′-Methoxy-[1,1′-biphenyl]-4-yl)methoxy)azetidine-1-carbonitrile] | 10 to 100 |
| Cc1ccc(-c2ccc(COC3CN(C#N)C3)cc2)cc1 [Example 76, 3-((4′-Methyl-[1,1′-biphenyl]-4-yl)methoxy)azetidine-1-carbonitrile] | 10 to 100 |
| N#CN1CC(OCc2ccc(-c3ccc(F)cc3)cc2)C1 [Example 77, 3-((4′-Fluoro-[1,1′-biphenyl]-4-yl)methoxy)azetidine-1-carbonitrile] | 10 to 100 |
| COc1cccc(-c2ccc(COC3CN(C#N)C3)c(F)c2)c1 [Example 78, 3-((3-Fluoro-3′-methoxy-[1,1′-biphenyl]-4-yl)methoxy)azetidine-1-carbonitrile] | 10 to 100 |
| COc1cccc(-c2ccc(COC3CN(C#N)C3)c(C(F)(F)F)c2)c1 [Example 79, 3-((3′-Methoxy-3-(trifluoromethyl)-[1,1′-biphenyl]-4-yl)methoxy)azetidine-1-carbonitrile] | 10 to 100 |
| COc1cccc(-c2ccc(COC3CN(C#N)C3)c(OC)c2)c1 [Example 80, 3-((3,3′-Dimethoxy-[1,1′-biphenyl]-4-yl)methoxy)azetidine-1-carbonitrile] | 10 to 100 |
| N#CN1CC(OCc2ccc(Oc3ccccc3)cc2)C1 [Example 81, 3-((4-Phenoxybenzyl)oxy)azetidine-1-carbonitrile] | 10 to 100 |
| COc1cccc(-c2ccc(C3(COC4CN(C#N)C4)CC3)cc2)c1 [Example 82, 3-((1-(3′-Methoxy-[1,1′-biphenyl]-4-yl)cyclopropyl)methoxy)azetidine-1-carbonitrile] | 10 to 100 |
| COc1cccc(OC)c1-c1ccc(COC2CN(C#N)C2)cc1 [Example 83, 3-((2′,6′-Dimethoxy-[1,1′-biphenyl]-4-yl)methoxy)azetidine-1-carbonitrile] | 10 to 100 |
| N#CN1CC(OCc2ccc(-c3ccc4c(c3)OCCO4)cc2)C1 [Example 84, 3-((4-(2,3-Dihydrobenzo[b][1,4]dioxin-6-yl)benzyl)oxy)azetidine-1-carbonitrile] | 10 to 100 |
| N#CN1CC(OCc2ccc(-c3cccc(OCc4ccccc4)c3)cc2)C1 [Example 85, 3-((3′-(Benzyloxy)-[1,1′-biphenyl]-4-yl)methoxy)azetidine-1-carbonitrile] | 10 to 100 |
| N#CN1CC(COCc2ccc(-c3ccccc3)cc2)C1 [Example 86, 3-(([1,1′-Biphenyl]-4-ylmethoxy)methyl)azetidine-1-carbonitrile] | 10 to 100 |
| N#CN1CC(OCc2ccc(Oc3ccccc3)cc2-c2ccccc2)C1 [Example 87, 3-((5-Phenoxy-[1,1′-biphenyl]-2-yl)methoxy)azetidine-1-carbonitrile] | 10 to 100 |
| COc1ccccc1-c1cc(Oc2ccccc2)ccc1COC1CN(C#N)C1 [Example 88, 3-((2′-Methoxy-5-phenoxy-[1,1′-biphenyl]-2-yl)methoxy)azetidine-1-carbonitrile] | 10 to 100 |

| SMILES | IC50 [nM] |
| --- | --- |
| COc1cccc(-c2cc(Oc3ccccc3)ccc2COC2CN(C#N)C2)c1 [Example 89, 3-((3′-Methoxy-5-phenoxy-[1,1′-biphenyl]-2-yl)methoxy)azetidine-1-carbonitrile] | 10 to 100 |
| COc1ccc(-c2cc(Oc3ccccc3)ccc2COC2CN(C#N)C2)cc1 [Example 90, 3-((4′-Methoxy-5-phenoxy-[1,1′-biphenyl]-2-yl)methoxy)azetidine-1-carbonitrile] | 10 to 100 |
| COc1ncccc1-c1cc(Oc2ccccc2)ccc1COC1CN(C#N)C1 [Example 91, 3-((2-(2-Methoxypyridin-3-yl)-4-phenoxybenzyl)oxy)azetidine-1-carbonitrile] | 10 to 100 |
| N#Cc1ccc(-c2cc(Oc3ccccc3)ccc2COC2CN(C#N)C2)cc1 [Example 92, 3-((4′-Cyano-5-phenoxy-[1,1′-biphenyl]-2-yl)methoxy)azetidine-1-carbonitrile] | 10 to 100 |
| N#Cc1ccccc1-c1cc(Oc2ccccc2)ccc1COC1CN(C#N)C1 [Example 93, 3-((2′-Cyano-5-phenoxy-[1,1′-biphenyl]-2-yl)methoxy)azetidine-1-carbonitrile] | 10 to 100 |
| N#CN1CC(OCc2ccc(OC(c3ccc(F)cc3)c3ccc(F)cc3)cc2Br)C1 [Example 94, 3-((4-(Bis(4-fluorophenyl)methoxy)-2-bromobenzyl)oxy)azetidine-1-carbonitrile] | 10 to 100 |
| COc1cccc(-c2ccc(COC3(C)CN(C#N)C3)cc2)c1 [Example 95, 3-((3′-Methoxy-[1,1′-biphenyl]-4-yl)methoxy)-3-methylazetidine-1-carbonitrile] | 10 to 100 |
| COc1cccc(-c2ccc(COC3(c4ccccc4)CN(C#N)C3)cc2)c1 [Example 96, 3-((3′-Methoxy-[1,1′-biphenyl]-4-yl)methoxy)-3-phenylazetidine-1-carbonitrile] | 10 to 100 |
| N#CN1CC(OCc2ccc(-c3ccc4c(c3)OCO4)cc2)(c2ccccc2)C1 [Example 97, 3-((4-(Benzo[d][1,3]dioxol-5-yl)benzyl)oxy)-3-phenylazetidine-1-carbonitrile] | 10 to 100 |
| N#CN1CC(OCc2ccc(-c3ccc4c(c3)OCCO4)cc2)(c2ccccc2)C1 [Example 98, 3-((4-(2,3-Dihydrobenzo[b][1,4]dioxin-6-yl)benzyl)oxy)-3-phenylazetidine-1-carbonitrile] | 10 to 100 |
| N#CN1CC(OC(c2ccccc2)c2ccc(Br)cc2)C1 (stereo not shown) [Example 99, 3-((4-Bromophenyl)(phenyl)methoxy)azetidine-1-carbonitrile] | 10 to 100 |
| COc1cccc(-c2ccc(C(OC3CN(C#N)C3)c3ccccc3)cc2)c1 (stereo not shown) [Example 100, 3-((3′-Methoxy-[1,1′-biphenyl]-4-yl)(phenyl)methoxy)azetidine-1-carbonitrile] | 10 to 100 |
| Cc1noc(C)c1-c1ccc(C(OC2CN(C#N)C2)c2ccccc2)cc1 (stereo not shown) [Example 101, 3-((4-(3,5-Dimethylisoxazol-4-yl)phenyl)(phenyl)methoxy)azetidine-1-carbonitrile] | 10 to 100 |
| Cn1cc(-c2ccc(C(OC3CN(C#N)C3)c3ccccc3)cc2)cn1 (stereo not shown) [Example 102, 3-((4-(1-Methyl-1H-pyrazol-4-yl)phenyl)(phenyl)methoxy)azetidine-1-carbonitrile] | 10 to 100 |
| CN(Cc1ccc(-c2ccccc2)cc1)C1CN(C#N)C1 [Example 103, 3-(([1,1′-Biphenyl]-4-ylmethyl)(methyl)amino)azetidine-1-carbonitrile] | 10 to 100 |
| N#CN1CC[C@H](OCc2ccc(-c3ccccc3)cc2)C1 [Example 104, (S)-3-([1,1′-Biphenyl]-4-ylmethoxy)pyrrolidine-1-carbonitrile] | 110 to 1000 |
| N#CN1CC[C@@H](OCc2ccc(-c3ccccc3)cc2)C1 [Example 105, (R)-3-([1,1′-biphenyl]-4-ylmethoxy)pyrrolidine-1-carbonitrile] | 10 to 100 |

Reference: patent US9963444B2, “N-acylethanolamine hydrolyzing acid amidase (NAAA) inhibitors and their use thereof” (Northeastern University, priority 2014, dated 2018)
